For data set [1] the following is noted: maximally tolerated dose, continuous infusion up to 14 days, subjects with symptomatic HIV infection; cited from earlier work.
The nature of data set [2]: Maximum tolerated dose in rats.
Data set [3] in a line: Maximum tolerated dose in dogs.
Data set [4] is described as follows: Maximum tolerated dose in monkeys.

As to dextran sulfate [listing 1 of 3 here], the “toxicity of continuous intravenous infusion” value in data set [1] is listed as “toxic”.

Turning to dextran sulfate [listing 2 of 3 here], in data set [2], the “maximum tolerated dose (MTD)” value is recorded as “about 800 mg/kg/day”.

In the case of dextran sulfate [listing 3 of 3 here], the “maximum tolerated dose (MTD)” value in data set [3] is recorded as “about 500 mg/kg/day”; in data set [4], “about 300 mg/kg/day”.
